The values below come from patent US7700352B2, “Composition for culturing mouse pluripotent stem cells” (Riken, priority 2002, dated 2010).

No end group written: not given here.

In experiment [1] the test system is feeder cell-independent ES cells (E14tg2a, CGR8). The experiment in a line: Formation of colonies of undifferentiated ES cells in medium free of serum and feeder cells (GMEM + LIF + 2-ME + KSR), Leischman staining. It is filed as cell-based, mouse. The settings on record: for capability to form a colony of undifferentiated cells: peptide at 1 μM in medium with LIF + 2-ME + KSR; for relative potency of the colony-forming capability: comparison among candidate peptides / ACTH fragments. Here is the method: One hundred of the feeder cell-independent ES cells (E14tg2a (Hooper, M. et al., Nature, 325, 292 (1987)), CGR8 (Mountford, P. et al., Proc. Natl. Acad. Sci. USA, 91, 4303 (1994)), and ES cells derived therefrom) were incubated on the gelatinated 12-well plate treated with a 0.1% (w/v) gelatin solution at 37° C. in 5% CO2 in one ml of a culture medium of Glasgow minimum essential medium (GMEM; Sigma) used as a cell culture minimum medium supplemented with (1) 1×10^3 U/ml LIF (ESGRO, Invitrogen), (3) 0.1 μM 2-mercaptoethanol (Nacalai Tesque), and (5) 10% (v/v) KSR (Invitrogen) per well.
Five days or more after the incubation, the supernatant was removed by aspiration, and then a Leischman staining liquid (1.5 g Leischman Staining: Sigma/L methanol) was added to the plate until the liquid covered all of the surface of the plate. The plate was left at room temperature for 10 minutes, and rinsed with water (Leischman staining). For the blue-stained colonies, no formation of colonies that maintained their morphology in an undifferentiated state was shown by the naked eye and light microscopy (FIG. 1 (g)). When the ES cells were incubated in a culture medium wherein the medium described above was supplemented with 0.3% (v/v) FCS (2), an average of 17 colonies of undifferentiated cells was observed (FIG. 1 (d)). […] Further, a formation of colonies of undifferentiated cells was observed when the ES cells were incubated at 1000 or more per well in the culture medium having the same composition ((1)+(3)+(5)). When the conditioned medium (CM) was added to a culture medium at a final concentration of 10% (v/v), and 100 ES cells per well were incubated therein, then an average of 7 colonies of undifferentiated cells was observed (FIG. 1 (f)).
Subsequently, a candidate peptide that had been selected from diverse known growth factors, cytokines, peptide hormones and the like, was added to the culture medium comprising (1)+(3)+(5), and the ES cells were incubated therein at 37° C. in 5% CO2 so that a capability of the candidate to form a colony of undifferentiated cells was determined. […] It should be noted that FIG. 1 (a) to (c) show the results obtained from the medium consisting of GMEM, LIF and 2-ME, supplemented with FCS+feeder cells, KSR+feeder cells, and FCS, respectively.
In a similar manner to the above, ACTH and the fragments thereof were added to the culture medium at a final concentration of 1 μM wherein (1) LIF, (3) 2-ME, and (5) KSR were supplemented to a cell culture minimum medium.
ACHT has been known to activate an ACTH receptor belonging to G-protein-coupled receptor families, which receptor activates an adenylate cyclase activity through the activation of trimeric G proteins containing the Gα s subunit. Now, to a cell culture minimum medium supplemented with (1) 1×10^3 U/ml LIF, (3) 0.1 μM 2-ME, (5) 10% (v/v) KSR, and (6) 10 μM ACTH, an inhibitor of an adenylate cyclase activity, SQ22536 (9-(tetrahydro-2-furanyl)adenine) (Sigma) at 100 μM, was further added, and the resultant medium was used to culture the ES cells in a similar manner to that of Example 1.
In order to check the effect of sole SQ22536, a cell culture minimum medium supplemented with (1) 1×10^3 U/ml LIF, (3) 0.1 μM 2-ME, (5) 10% (v/v) KSR, and (7) SQ22536 100 μM was used to culture the ES cells in a similar manner to that of Example 1. As a result, an average of nine colonies of undifferentiated cells was observed. Further, even when the medium added with another inhibitor of an adenylate cyclase activity, 2′,5′-dideoxyadenosine (Sigma) 500 μM, was used, an average of eight colonies of undifferentiated cells was observed. […]

Experiment [2] deals with ES cells injected into the mouse blastocyst. Kind of experiment: Chimeric mouse production from ES cells injected into the mouse blastocyst (retention of pluripotency). It is filed as in vivo. The settings on record: ES cells cultured with 1 nM adrenocorticotropic hormone. Here is the method:
The undifferentiated ES cells derived from the colonies obtained by the culture with 1 nM adrenocorticotropic hormone in Example 1 as described above were further subcultured twice, and the resultant cells were injected into the mouse blastocyst to complete the transplantation into the pseudopregnant mouse uterus.

Experiment [3] has as its system inner cell masses of C57BL/6 blastocysts. The experiment in a line: Establishment of ES cell lines from inner cell masses of blastocysts in serum-free, feeder-free medium. It is filed as cell-based, mouse. The settings on record: 10 μM ACTH, LIF, 2-ME, KSR, fibronectin-coated plate; thirty C57BL/6 embryos. Here is the method:
Thirty embryos at blastocyst stage of 3.5 days old were removed from C57BL/6 inbred mouse strains, and the inner cell masses isolated from the embryos by immunosurgery were individually incubated in the culture medium consisting of CCMM, (1) 1×10^3 U/ml LIF, (3) 0.1 μM 2-ME, 0.1 mM non-essential amino acids, 1 mM sodium pyruvate, (5) 10% (v/v) KSR, and (6) 10 μM ACTH on a plate coated with fibronectin.

The mark [4] stands for this setting: SQ22536 100 μM added to medium with 10 μM ACTH, 7th day.
Where [5] appears, read: pertussis toxin 100 ng/ml added to medium with 10 μM ACTH.
Setting [6] is: 10 μM ACTH (1-24), compared with 0.3% FCS or 10% CM.

Turning to “pituitary adenylate cyclase activating polypeptide (HSDGIFTDSYSRYRKQMAVKKYLAAVLGKRYKQRVKNK; ends and bridges not checked; UniProt P18509 132-169, looked up)”, in experiment [1], the “capability to form a colony of undifferentiated cells” value is given as “formation of colonies of undifferentiated ES cells having the apparent morphology was observed”.
Regarding brain natriuretic peptide, the “capability to form a colony of undifferentiated cells” value in experiment [1] is recorded as “formation of colonies of undifferentiated ES cells having the apparent morphology was observed”.
Same read-out and setting: under “ACTH (11-24): fragment of ACTH, amino acids 11 to 24 (KPVGKKRRPVKVYP; Corticotropin; UniProt P01189 148-161, looked up, fragment)” stands “showed to have the capability”; under “ACTH (18-39): fragment of ACTH, amino acids 18 to 39 (RPVKVYPNGAEDESAEAFPLEF; Corticotropin; UniProt P01189 155-176, looked up, fragment)”, “showed to have no capability”.
Consider `Nc1ncnc2c1ncn2C1CCCO1` (stereo not drawn) [SQ22536, 9-(tetrahydro-2-furanyl)adenine], for which, in experiment [1] (setting [4]), the “formation of colonies of undifferentiated cells” value was “no formation of colonies of undifferentiated cells was unexpectedly inhibited” and the “size of individual colonies” value is recorded as “significantly increased”. Besides, the “average number of colonies of undifferentiated cells” value in experiment [1] (SQ22536 100 μM alone (no ACTH) in LIF + 2-ME + KSR medium) is reported as “nine”.
With “adrenocorticotropic hormone (SYSMEHFRWGKPVGKKRRPVKVYPNGAEDESAEAFPLEF; Corticotropin; UniProt P01189 138-176, looked up) [ACTH, peptide hormone composed of 39 amino acid residues (ACTH (1-39))]”, the “relative potency of the colony-forming capability” value in experiment [1] was “the capability at the lowest concentration among the candidate peptides”. Besides, in experiment [1] (listed as ACTH (1-39)), the “capability to form a colony of undifferentiated cells” value is listed as “showed to have the capability”. Besides, in experiment [1] (listed as adrenocorticotropic hormone), the “capability to form a colony of undifferentiated cells” value was “formation of colonies of undifferentiated ES cells having the apparent morphology was observed”. In experiment [2], the “chimeric mice with an ES cell contribution ratio of 70% or more (hair color)” value is 17 litters, the “contribution of the ES cells to the germ cell line (inbreeding)” value is “the inbreeding showed the contribution of the ES cells to the germ cell line”, the “female litters among the 17 chimeric litters” value is recorded as 14 litters and the “litters survived three weeks or more after birth” value amounted to 30 litters. In addition, the “litters produced from 100 transplanted embryos” value in experiment [2] (subcultured twice, injected into blastocyst) was 33 litters. Moreover, in experiment [3], the “inner cells that initiated proliferation and finally established ES cell lines” value is “at least two”.
For the compound pertussis toxin, in experiment [1] (setting [5]), the “effect of ACTH on colony formation” value was “the effect of ACTH was inhibited” and the “size of the colonies of undifferentiated cells” value is “drastically decreased”.
`C[C@H]1O[C@@H](n2cnc3c(N)ncnc32)C[C@@H]1O` [2′,5′-dideoxyadenosine]: in experiment [1] (2′,5′-dideoxyadenosine 500 μM in LIF + 2-ME + KSR medium), the “average number of colonies of undifferentiated cells” value is “eight”.
For “ACTH (1-24): fragment of ACTH, amino acids from the N-terminus 1 to 24”, in experiment [1] (setting [6]), the cell proliferation rate result was “equivalent to that in the case of 0.3% FCS or 10% CM” and the “formation rate of undifferentiated cell colonies” value was “equivalent to that in the case of 0.3% FCS or 10% CM”. In experiment [1], the “relative potency of the colony-forming capability” value was “most potent capability among the fragments having a capability” and the “capability to form a colony of undifferentiated cells” value is recorded as “showed to have the capability”. Moreover, the “formation of the colony of undifferentiated cells” value in experiment [1] (final concentration of 0.1 μM) was “showed the formation of the colony of undifferentiated cells”.
